Laboratory results published in US20170368120A1, “Use of compositions of water/alcohol extracts of Antrodia cinnamomea cut-log wood cultivated fruiting body and solid-state cultivated mycelium as auxiliaries for anti-cancer agents” (Taiwan Leader Biotech Corp, priority 2016, published 2017).

How the values were obtained:
[1] = system: Human gastric cancer MKN-45 cells; test: Auxiliary effect on 5-FU in MKN-45 tumor-bearing nude mice; format: in vivo, Balb/c nu/nu mice; conditions: 5-FU alone 25 mg/kg ip three times a week
Method: In this example, the auxiliary effect of the A. cinnamomea composition on the anti-tumor agent 5-FU was confirmed in an animal model. Balb/c nu/nu mice of six-week old, purchased from the National Laboratory Animal Center, were used in the test. The 5-FU (25 mg/kg, ip) treated group was used as positive group, with drug administration frequency of three times a week. The A. cinnamomea composition (L) of solid-state cultivated mycelium water/alcohol extract and cut-log wood cultivated fruiting body water/alcohol extract was orally administered to mice once a day with following dosages: 1× dose of 680 mg/kg, 0.5× dose of 340 mg/kg, 0.25× dose of 170 mg/kg and 0.125× dose of 85 mg/kg. If the mice had been injected with 5-FU, the L was orally treated four hours after the application of 5-FU. Human gastric cancer MKN-45 cells (3×10^6) were implanted into immune deficient nude mice, and the drug administration was started when the tumor size reached to 100˜200 mm^3. The tested animal groups included the control, 5-FU, 5FU+L, 5-FU+0.5L, 5-FU+0.25L and 5-FU+0.125L groups, with 8 mice in each group.

[2] = system: MKN45 gastric cancer cells; test: Gastric tumor growth in MKN45 tumor-bearing nude mice; format: in vivo; conditions: 5-FU injection
Source text: In this example, the effects of the A. cinnamomea composition of solid-state cultivated mycelium water/alcohol extracts and cut-log wood cultivated fruiting body water/alcohol extracts on gastric tumor growth were further evaluated in an animal model. The test A. cinnamomea compositions included 5% FB/95% SC, 10% FB/90% SC, 20% FB/80% SC, and 40% FB/60% SC, respectively. The animal used in the experiment is an immune deficient mouse (nude mice) implanted MKN45 gastric cancer cells. 10 days after the cancer cell implantation, the animals were orally given the tested A. cinnamomea compositions (300 mg/kg/day) by oral gavage for 21 days. The treated animals were scarified. The tumor was isolated and weighted, as the key indicator for assessing the inhibition of tumor growth.

[3] = system: CFU-GM in bone marrow; test: CFU-GM colony test in bone marrow of 5-FU treated mice; format: in vivo, C57BL/6 mice; conditions: 5-FU alone 200 mg/kg ip at first day; marrow at day 11
Method: (§1) The effect of the A. cinnamomea composition (L) on recovering the blood cell reducing caused by the application of chemotherapy drug 5-FU was evaluated in the colony test of CFU-GM in bone marrow. C57BL/6 mice of eight-week old, purchased from the National Laboratory Animal Center, were used in the test. The tested animal groups included the control, 5-FU, 5FU+L, 5-FU+0.5L, 5-FU+0.25L and 5-FU+Angiotensin II (Aii) groups, with 6 mice in each group. After the intraperitoneal injection of 5-FU (200 mg/kg) at first day, the test drug A. cinnamomea composition (L) was orally administered to the animals, or the positive control drug Angiotensin II (Aii, 100 μg/kg) was intraperitoneally injected to the animals at day 4˜10. Dosages of the A. cinnamomea composition (L) were used as follow: 1× dose of 680 mg/kg, 0.5× dose of 340 mg/kg and 0.25× dose of 170 mg/kg. Whole blood was collected from cheek before sacrificing the animals at day 11, and the Complete Blood Count (CBC) was performed to record the number of blood cells, including white blood cells, red blood cells, lymphocytes and neutrophils in peripheral blood. The femur was removed from the sacrificed mouse at day 11 of the experiment. The bone marrow cells were collected for the cultivation of CFU-GM. Cells was cultured for 7 days, and the number of CFU-GM colonies was counted.

[4] = system: blood cells in peripheral blood; test: Complete Blood Count in 5-FU treated mice; format: in vivo, C57BL/6 mice; conditions: 5-FU alone 200 mg/kg ip, compared to control
Method: as §1

CFU-GM colony number [3]: 1,869 colonies/10^6 marrow cells | number of lymphocytes [4]: significantly reduced | number of neutrophils [4]: significantly reduced | number of red blood cells [4]: significantly reduced | number of white blood cells [4]: significantly reduced
Structure (SMILES): O=c1[nH]cc(F)c(=O)[nH]1 [5-FU, 5-fluorouracil]
tumor weight [1]: 0.85 g | tumor weight [2]: significant decrease in tumor weight
